The values that follow come from US20230073512A1, “MODULATORS OF CULLIN 3 ADAPTOR KBTBD4 AS ANTI-CANCER COMPOUNDS” (UNIVERSITE DE MONTREAL, priority 2019, published 2023).

Molecules are shown by their SMILES. Like-named read-outs stand apart in the source and are kept apart here. Residues, ends and D or L forms follow the SMILES beside them. *: point of attachment. Cbz = O=C(OCc1ccccc1)*

For series [1], the system named is AML3. The experiment in a line: Cell proliferation of cancerous cell lines. It counts as cell-based. The conditions noted are these: AML3; read-out: Antineoplastic effect of tested compounds on cell proliferation of cancerous AML3 cells, IC50.
The test system of series [2] is H3K27Ac and H3K4me2 in OCI-AML5. The experiment in a line: Flow cytometry of H3K27Ac, H3K4me2 and H3. The note with it: OCI-AML5, 24 hrs; UM171 250 nM, Panobinostat 5 nM, TCP 10 μM. It counts as cell-based. In general terms: In flow cytometry, cells or beads pass a laser one at a time.
The subject of series [3] is CD201 and CD86 in OCI-AML5. Nature of the series: FACS analysis of CD201 and CD86. It counts as cell-based. The note with it: OCI-AML5, 24 hrs; UM171 250 nM, Panobinostat 5 nM, TCP 10 μM. As for the experimental part: (§1) Mouse anti-human antibodies were used to detect CD34 (APC or BV421-BD Biosciences), CD45RA (PE-BD Biosciences), CD86 (PerCP-eFluor710-eBioscience), CD90 (PECY7- BioLegend), and CD201 (APC-BioLegend). Flow cytometry acquisitions were performed on a Canto II cytometer (BD Biosciences) and data analysis was performed using FowJo software (Tree Star, Ashland, Oreg., USA) and GraphPad Prism software. Dead cells were excluded using 7AAD staining.

Series [4] relates to CD201 and CD86 in OCI-AML1 cells. The experiment in a line: Flow cytometry of CD201 and CD86 surface expression. The conditions noted are these: Panobinostat 5 nM, TCP 5 μM. It counts as cell-based. The procedure: as §1
Series [5] has as its system CD34+ cord blood cells. The note with it: 7 days culture, UM171 at 5 nM and LSD1 inhibitor (TCP). The procedure: as §1
In series [6] the target is T1, RCOR1, LSD1, HDAC2 in OCI-AML1 cells (Homo sapiens, UniProt O60341+Q92769+Q9UKL0).
T1 construct: nucleoplasmic proteins extracted from shLuc or shKBTBD4- transduced OCI-AML1 cells; endogenous in cells; host or cells: OCI-AML1 cells transduced with shLuc or shKBTBD4
Nature of the series: Western Blot of CoREST members. It counts as cell-based. The conditions noted are these: OCI-AML1, UM171 250 nM plus MG132 10 μM or MLN2494 100 nM. As for the experimental part:
Representative blots (upper panel) showing KBTBD4, RCOR1, LSD1, HDAC2 and Nucleolin (NCL, loading control) protein levels. Quantification of RCOR1 protein levels were evaluated in 3 independent experiments (lower panel).
Representative blots (upper panel) showing CUL3, RCOR1 and TUBA (loading control) protein levels. Quantification of RCOR1 protein levels were evaluated in 2 independent experiments (lower panel).
(§2) Total protein extraction was performed in lysis buffer (25 mM tris ph7.5, 150 mM NaCl, 1% NP-40, protease inhibitors).
(Immunoblotting shows a protein as a band on a membrane.)

Series [7] has as its target T2, RCOR1, LSD1, HDAC2 in CD34+ derived cord blood cells (Homo sapiens, UniProt O60341+Q92769+Q9UKL0).
T2 construct: total proteins extracted from d3 expanded CD34+ derived cord blood cells; endogenous in cells; host or cells: d3 expanded human CD34+ cord blood derived cells (primary)
Nature of the series: Western Blot of CoREST members in CD34+ cells. It counts as cell-based. The note with it: UM171 500 nM / MG132 5 μM, 4 hrs. As for the experimental part:
FIG. 15A illustrate a Western Blot analysis of total proteins extracted from d3 expanded CD34+ derived cord blood cells exposed to DMSO, UM171 (500 nM) or UM171/MG132 (5 μM) for 4 hrs. Representative blot showing KBTBD4, RCOR1, LSD1, HDAC2, CUL3 and TUBA as loading control.
as §2

In series [8] the test system is CB. Nature of the series: Cell proliferation, CB sample of Table 2. The note with it: read-out: Antineoplastic effect on cell proliferation, IC50.
Series [9] deals with AML samples. Nature of the series: Cell proliferation of cancerous samples from patients.
Series [10] can be described thus: PK assays in mice, intravenous and oral.
Experimental: PK assays were performed in mice (n=3). […] The following pharmacokinetic parameters were calculated.
The compounds were orally administered at 20 mg/kg and plasma samples were collected at 15, 30 minutes and 1, 2, 4, 6 and 8 hours after administration. The following pharmacokinetic parameters were calculated.
Setting [11] is: orally administered at 20 mg/kg.

For `COC(=O)c1ccc2c(c1)[nH]c1nc(Cc3ccccc3)nc(NCCCN(C)CCOCCOCCO)c12`, the IC50 in series [1] lay in the range of 0.5 to 1 µM.
As for `COC(=O)c1ccc2c(c1)[nH]c1nc(Cc3ccccc3)nc(Nc3cccc(CO)c3)c12`, the IC50 in series [1] is 2 to 5 µM.
Take `COC(=O)c1ccc2c(c1)[nH]c1nc(Cc3ccccc3)nc(Nc3cccc(N)c3)c12`: the IC50 in [1] is 2 to 5 µM.
As to `COC(=O)c1ccc2c(c1)[nH]c1ncnc(N[C@H]3CC[C@@H](N)CC3)c12`, the IC50 in series [1] fell in the range of 2 to 5 µM.
For `c1csc(-c2ccc3c(c2)[nH]c2ncnc(NCCCN4CCCCC4)c23)c1`, the IC50 in series [1] lay in the range of 2 to 5 µM.
Consider `c1ccc(-c2ccc3c(c2)[nH]c2ncnc(NCCCN4CCCCC4)c23)cc1`, for which, in [1], the IC50 lay within 2 to 5 µM.
Turning to `CCCCCc1nc(NCCCN2CCCCC2)c2c(n1)[nH]c1cc(C(=O)OC)ccc12`, in series [1], the IC50 was in the range of 0.5 to 1 µM.
On the same count and under the same terms, the value for `COC(=O)c1ccc2c(c1)[nH]c1nc(Cc3ccc(Br)cc3)nc(NCCCN3CCCCC3)c12` was 0.5 to 1 µM.
Still for that read-out and setting: with `Cn1nnc(-c2ccc3c(c2)[nH]c2nc(Cc4ccccc4)nc(NCCCN4CCCCC4)c23)n1` the figure was 0.5 to 1 µM; with `COC(=O)c1ccc2c(c1)[nH]c1nc(Cc3ccccc3C)nc(NCCCN3CCCCC3)c12`, 1 to 2 µM.
On to `COC(=O)c1ccc2c(c1)[nH]c1nc(Cc3ccsc3)nc(NCCCN3CCCCC3)c12`, for which the IC50 in series [1] was in the range of 1 to 2 µM.
For the compound `COC(=O)c1ccc2c(c1)[nH]c1nc(Cc3ccncc3)nc(NCCCN3CCCCC3)c12`, in series [1], the IC50 lay in the range of 2 to 5 µM.
With `COC(=O)c1ccc2c(c1)[nH]c1ncnc(NC3CCC(N(C)C)CC3)c12` (stereo not shown), the IC50 in series [1] was in the range of 2 to 5 µM.
As to `COC(=O)c1ccc2c(c1)[nH]c1nc(Cc3cccc(F)c3)nc(NCCCN3CCCCC3)c12`, the IC50 in [1] fell in the range of 2 to 5 µM.
`COC(=O)c1ccc2c(c1)[nH]c1nc(Cc3cccc(OC)c3)nc(NCCCN3CCCCC3)c12`: the IC50 in [1] lay in the range of 2 to 5 µM.
Same read-out and setting: the value for `COC(=O)c1ccc2c(c1)[nH]c1nc(Cc3cccs3)nc(NCCCN3CCCCC3)c12` was 2 to 5 µM; that for `CCOC(=O)c1ccc2c(c1)[nH]c1nc(Cc3ccccc3)nc(NCCCN3CCCCC3)c12` was 2 to 5 µM; that for `COC(=O)c1ccc2c(c1)[nH]c1nc(Cc3ccccn3)nc(NCCCN3CCCCC3)c12` was 2 to 5 µM.
Turning to `COC(=O)c1ccc2c(c1)[nH]c1nc(CC3CCCCC3)nc(NCCCN3CCCCC3)c12`, in series [1], the IC50 was 2 to 5 µM.
`Cn1nnc(-c2ccc3c(c2)[nH]c2nc(Cc4ccccc4)nc(N[C@H]4CC[C@H](N(C)C)CC4)c23)n1`: in [1], the IC50 is 0.5 to 1 µM.
For `N[C@@H]1C[C@H]1c1ccccc1` (racemic) [TCP, tranylcypromine], the “H3K27Ac and H3K4me2 marks” value in series [2] is recorded as “induces”. The “CD201 and CD86 expression compared to DMSO” value in series [3] was “upregulation”. In series [4], the “CD86 expression in shKBTBD4 expressing cells” value is reported as “induces”. In series [5], the “CD34+, CD34+CD201+CD90+ and CD34+CD86+ subsets, combination with UM171” value is “synergistic effect”.
For `CC(C)C[C@@H](C=O)NC(=O)[C@H](CC(C)C)NC(=O)[C@H](CC(C)C)NC(=O)OCc1ccccc1` [MG132] (Cbz-Leu-Leu-Leu-aldehyde), the “UM171-induced loss of RCOR1 under co-treatment” value in [6] is given as “reduced”. The “UM171-induced loss of LSD1 and RCOR1 proteins under co-treatment” value in [7] was “abolishes the loss”.
As to `NS(=O)(=O)OC[C@@H]1C[C@@H](n2ccc3c(N[C@H]4CCc5ccccc54)ncnc32)C[C@@H]1O` [MLN2494], the “UM171-induced loss of RCOR1 under co-treatment” value in series [6] is given as “normal”.
As to `COC(=O)c1ccc2[nH]c3nc(Cc4ccccc4)nc(NCCCN4CCCCC4)c3c2c1` [UM134], the IC50 in [8] lay in the range of 1 to 10 µM; in series [9] (read-out: Antineoplastic effect on cell proliferation, IC50, AML sample 04H063), 1 to 10 µM; in series [9] (read-out: Antineoplastic effect on cell proliferation, IC50, AML sample 05H094) it was 1 to 10 µM; in series [9] (read-out: Antineoplastic effect on cell proliferation, IC50, AML sample 05H149) it was 1 to 10 µM; in series [9] (read-out: Antineoplastic effect on cell proliferation, IC50, AML sample 06H045), 1 to 10 µM; in [9] (read-out: Antineoplastic effect on cell proliferation, IC50, AML sample 06H088), 1 to 10 µM. The IC50 is 1 to 10 µM in series [9] (read-out: Antineoplastic effect on cell proliferation, IC50, AML sample 06H117); 1 to 10 µM in series [9] (read-out: Antineoplastic effect on cell proliferation, IC50, AML sample 07H005); 1 to 10 µM in series [9] (read-out: Antineoplastic effect on cell proliferation, IC50, AML sample 07H038); 1 to 10 µM in series [9] (read-out: Antineoplastic effect on cell proliferation, IC50, AML sample 07H045); 1 to 10 µM in [9] (read-out: Antineoplastic effect on cell proliferation, IC50, AML sample 07H125); 1 to 10 µM in [9] (read-out: Antineoplastic effect on cell proliferation, IC50, AML sample 07H135). The IC50 in series [9] (read-out: Antineoplastic effect on cell proliferation, IC50, AML sample 07H151) lay in the range of 1 to 10 µM; in series [9] (read-out: Antineoplastic effect on cell proliferation, IC50, AML sample 08H018), 1 to 10 µM; in series [9] (read-out: Antineoplastic effect on cell proliferation, IC50, AML sample 09H010), 1 to 10 µM; in [9] (read-out: Antineoplastic effect on cell proliferation, IC50, AML sample 09H046) it was 1 to 10 µM; in series [9] (read-out: Antineoplastic effect on cell proliferation, IC50, AML sample 09H079), 1 to 10 µM; in series [9] (read-out: Antineoplastic effect on cell proliferation, IC50, AML sample 09H115) it was 1 to 10 µM. The IC50 in [9] (read-out: Antineoplastic effect on cell proliferation, IC50, AML sample 10H022) was in the range of 1 to 10 µM; in series [9] (read-out: Antineoplastic effect on cell proliferation, IC50, AML sample 10H127), 1 to 10 µM; in series [9] (read-out: Antineoplastic effect on cell proliferation, IC50, AML sample 11H002) it was 1 to 10 µM; in [9] (read-out: Antineoplastic effect on cell proliferation, IC50, AML sample 11H046), 1 to 10 µM; in [9] (read-out: Antineoplastic effect on cell proliferation, IC50, AML sample 11H103), 1 to 10 µM; in series [9] (read-out: Antineoplastic effect on cell proliferation, IC50, AML sample 12H045), 1 to 10 µM. Besides, the IC50 in series [9] (read-out: Antineoplastic effect on cell proliferation, IC50, AML sample 12H058) lay in the range of 1 to 10 µM; in [9] (read-out: Antineoplastic effect on cell proliferation, IC50, AML sample 12H096), 1 to 10 µM; in series [9] (read-out: Antineoplastic effect on cell proliferation, IC50, AML sample 12H106) it was 1 to 10 µM; in series [9] (read-out: Antineoplastic effect on cell proliferation, IC50, AML sample 12H151), 1 to 10 µM; in series [9] (read-out: Antineoplastic effect on cell proliferation, IC50, AML sample 13H100) it was 1 to 10 µM; in [9] (read-out: Antineoplastic effect on cell proliferation, IC50, AML sample 13H150), 1 to 10 µM.
In the case of `COC(=O)c1ccc2c(c1)[nH]c1ncnc(NCCCN3CCCCC3)c12` [UM729], in [10] (setting [11]), the “area under the curve (AUC)” value came to 1.2 µM·h, the “bioavailability (% F)” value was 19% and the “maximal time (tmax)” value was determined as 48 min. For the same compound, in series [10] (read-out: maximal concentration (Cmax), orally administered at 20 mg/kg), the Cmax stood at 200 nM.
In the case of `COC(=O)c1ccc2c(c1)[nH]c1ncnc(NCCCN3CCCCC3)c12` [drawing 45], the IC50 in [1] lay in the range of 2 to 5 µM.
`Cn1nnc(-c2ccc3c(c2)[nH]c2ncnc(NCCCN4CCCCC4)c23)n1` [drawing 53]: the IC50 in [1] fell in the range of 1 to 2 µM.
With `COC(=O)c1ccc2[nH]c3nc(Cc4ccccc4)nc(NCCCN4CCCCC4)c3c2c1` [drawing 103], the IC50 in [1] was 2 to 5 µM.
